For one data set, the system named is SKOV3T cells. Description: Survival, IP SKOV3T xenograft in BALB/c nu/nu mice. The data set is classed as in vivo, human. The following applies: 15 mg/kg/day IP in DMSO. As to the method: Cell lines were grown in the appropriate media as described in Appendix 1. Cells were harvested and washed in sterile PBS or medium without FBS, resuspended to a suitable concentration, and injected into the IP cavity of […] of the appropriate strain. Prior to implantation of 7TD1 cells, C57BL/6 mice were primed by IP injection of 0.5 mL Pristane. SKOV3T cells were implanted into athymic mice without Pristane priming. Mice were observed daily for the occurrence of ascites formation. Individual animals were sacrificed when they presented with a weight gain of 40%, or when the IP tumor burden began to cause undue stress and pain to the animal.
In one experiment, SKOV3T cells (2×10^6 cells) were implanted into the IP cavity of BALB/c, nu/nu mice.

For the next data set, the system named is U87MG cells. Description: Intracerebral U87MG tumor, athymic mice, survival. The data set is classed as in vivo, human. The following applies: IC U87MG; control 60 days; P=0.15.
Data set [1] has as its system autoimmune animal diseases. The following applies: in vivo; cited from earlier work.
The next data set has as its system 9L glioma. Put plainly: SC xenograft in mice. The following applies: nu/nu, 20 mg/kg/day, day 20. Type of data set: in vivo, rat. The procedure:
Cell lines were grown in appropriate medium (see Appendix 1). Cells were harvested at or near confluency with 0.05% Trypsin-EDTA and pelleted at 450×g for 10 min. Pellets were resuspended in sterile PBS or media (without FBS) to a particular concentration and the cells were implanted into the hindflank of mice. Tumor growth was measured over 3 to 6 weeks using venier calipers. Tumor volumes were calculated as a product of length×width×height unless otherwise indicated. P values were calculated using the Students' t-test.

For the next data set, the system named is C6 cells. Put plainly: PDGF-stimulated DNA synthesis, C6 cells (3H-thymidine). Type of data set: cell-based, rat. The following applies: 50 ng/ml PDGF-BB.
For data set [2], the system named is spleen cells. Description: Normal immune function in mice bearing a primary tumor. Type of data set: in vivo, mouse. As to conditions: 20 mg/kg/day. The source says:
(§1) At the indicated times, animals were sacrificed, and the spleens were aseptically removed and placed into sterile medium. Spleens were processed into single cell suspensions by grinding between sterile frosted glass microscope slides. After a single wash to remove tissue debris, the spleen cells were resuspended in a hypotonic ammonium chloride buffer to lyse erythrocytes. Lymphocytes were washed and resuspended to the appropriate concentrations in complete medium, consisting of RPMI plus 10% heat-inactivated FBS, 2 mM glutamine, 50 μM β-mercaptoethanol, and penicillin-streptomycin. The responses of the lymphocytes were examined in the following assays according to accepted procedures (Current Protocols in Immunology. Coligan, J. E., Kruisbeek, A. M., Margulies, D. H., Shevach, E. M., Strober, W. (eds.) John Wiley and Sons, Inc., 1992).
(§2) The T-cell mitogen, ConA, and the T-cell independent B-cell mitogen, LPS, were added to 96-well round-bottom wells at the indicated concentrations. Lymphocytes from normal, vehicle-dosed, and drug-dosed animals were added at a final concentration of 2.5×10^5 /well. Cultures were usually set up in triplicate or quadruplicate. The plates were incubated at 37° C. in a humidified atmosphere containing 5% CO2 for the indicated times. Supernatants (approximately 100 μL) were carefully removed from the wells and stored at -80° C. for lymphokine and immunoglobulin analyses. To measure proliferation of the lymphocytes, 1 μCi of ^3 H-thymidine was added to each well, and the plates were incubated for 6 hr. The cultures were harvested onto glass fiber filters, and the incorporated radioactivity was quantitated by liquid scintillation counting (Betaplate, Wallac).
(§3) Lymphocytes from normal, vehicle-dosed, and drug-dosed animals were plated at 2.5×10^5 /well in round-bottom 96-well plates. Stimulator cells were then added at the same cell concentration. The stimulator cells consisted of syngeneic or allogeneic lymphocytes which had been treated with 50 μg/mL of mitomycin C for 30 min prior to the assay. The plates were incubated for 3 to 4 days, at which time supernatants were harvested and the cultures were pulsed as described for the mitogen assays.
(§4) Supernatants from mitogen and MLR cultures were assayed for IL-2 and IL-6 content by the ability to support the growth of factor-dependent cell lines. HT-2 cells (10^4 /well, IL-2-dependent) and 7TD1 cells (2×10^3 /well, IL-6-dependent) were plated in 96-well flat-bottom plates, in 50 μL/well. Supernatants were added in 50 μL/well, and the plates were incubated overnight (HT-2) or four days (7TD1). Cellular proliferation was determined in the MTT colorimetric assay (Appendix 3.1).
Flat bottom 96-well EIA plates were coated with goat anti-mouse Ig antibodies (Southern Biotechnology) overnight at 4° C. The plates were blocked by the addition of PBS+1% BSA. After washing with PBS, supernatants from murine mitogen and MLR cultures were added and incubated at room temperature for 1 hr. The plates were washed with PBS, then HRP-labeled goat anti-mouse Ig antibodies were added and incubated at room temperature for 1 hr. The plates were washed and developed by the addition of substrate (ABTS).
BALB/c mice received SC implants of syngeneic WEHI-164.13 fibrosarcoma cells on day 0. […] On day 17, the animals were sacrificed and their spleens were removed. The spleen cells were assayed in vitro for responses to alloantigens and mitogens.

Data set [3] relates to spleen cells. Description: Normal immune function in rats bearing a primary tumor. Type of data set: in vivo, rat. Further details: key to 3H-thymidine uptake: 0: no change; +/-: decrease in some drug-treated animals to levels detected in normal (non-tumor-bearing, non-drug-treated) animals. As to conditions: 8.4 mg/kg/day.
Excerpt: as §1, §2, §3, §4
Wistar rats received SC implants of C6 cells on day 0. […] The control group was not treated after tumor implantation. On day 21, the animals were sacrificed and the spleens were removed for in vitro analyses. Splenocytes were stimulated with ConA, LPS, and alloantigen (DA rat spleen cells) as in the murine studies.

The next data set can be described thus: LD10. As to conditions: in vivo.

For the compound `Cc1oncc1C(=O)Nc1ccc(C(F)(F)F)cc1` [Compound A10, 5-methylisoxazole-4 carboxylic acid-(4-trifluromethyl)-anilide], in the data set with SKOV3T cells, the “survival” value is on record as “significantly increase the survival”. In the data set with SKOV3T cells (after 32 days), this compound yielded an animals alive of 40%. In the data set with SKOV3T cells (by 28 days), the animals died result is reported as “one of A10 treated animals died by 28 days”. The mean survival in the data set on U87MG cells was determined as 65 days. In addition, in data set [1], the autoimmune animal diseases result was “very effective in preventing and curing several autoimmune animal diseases”. Besides, the “% Inhibition” value with 9L glioma is listed as 83%. In the data set on C6 cells, the “PDGF-stimulated DNA synthesis” value is listed as “decreased PDGF-stimulated DNA synthesis in both types of cells”. The IL-2 production with spleen cells [2] (Allo), in the data set with spleen cells [2] (ConA), in the data set with spleen cells [2] (LPS), in the data set on spleen cells [2] (Tumor stimulus), with spleen cells [3] (Allo) and in the data set on spleen cells [3] (ConA) was 0 in each case. Besides, the IL-2 production in the data set on spleen cells [3] (LPS), in the data set with spleen cells [3] (Syn) and with spleen cells [3] (Tumor stimulus) was 0 throughout. Further, the IL-6 production in the data set with spleen cells [2] (Allo), with spleen cells [2] (ConA), in the data set with spleen cells [2] (LPS), in the data set on spleen cells [2] (Tumor stimulus), with spleen cells [3] (Allo) and in the data set on spleen cells [3] (ConA) was 0 throughout. The IL-6 production in the data set with spleen cells [3] (LPS), in the data set with spleen cells [3] (Syn) and with spleen cells [3] (Tumor stimulus) was 0 in each case. Also, the Ig production with spleen cells [2] (Allo), in the data set on spleen cells [2] (ConA), in the data set with spleen cells [2] (LPS) and with spleen cells [2] (Tumor stimulus) was 0 each time. Also, in the data set with spleen cells [3], the “syngeneic MLR proliferative response” value is on record as “reduced in one of four A10-treated tumor-bearing animals”. In addition, the 3H-thymidine uptake with spleen cells [3] (Allo) is listed as 0; in the data set on spleen cells [3] (ConA), 0; with spleen cells [3] (LPS) it was 0; with spleen cells [3] (Syn), “+/-”; in the data set on spleen cells [3] (Tumor stimulus) it was 0.
`c1ccc(-c2cnc3cc4ccccc4cc3n2)cc1` [Compound G22]: in the data set “LD10”, the LD10 was found to be 25 mg/kg.
